Measurements from patent US20240246940A1, “HETEROARYL DERIVATIVE COMPOUND AND USE THEREOF” (VORONOI INC., priority 2021, published 2024).

Tests used:
HER2 = target: T1, HER2 (Homo sapiens, UniProt P04626); experiment: Biochemical kinase assay for HER2 (Reaction Biology Corp), ATP 10 μM, 10-dose IC50
T1 construct: purchased Reaction Biology Corp
Description: Biochemical kinase assays for HER2 and EGFR were performed by Reaction Biology Corp (San Diego, USA).

[1] = tested on: BT-474 cells (HER2 overexpressing cell line); experiment: BT-474 cell proliferation inhibitory activity (CellTiter-Glo, 120 hours); type: cell-based; settings: Homo sapiens
Outline: (§1)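 Luminescent viability read-out, growth % vs control → GI50, n=3. Seeding: SK-BR-3/BT-474 5000 cells, 48 h pre-plating; N-87 5000, 24 h; HaCaT 3000, 24 h. Dose ranges: 0.2 nM–10 μM (SK-BR-3, BT-474; 3-fold), […]–5 μM (N-87; 5-fold), 0.8 nM–45 μM (HaCaT; 3-fold).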

[2] = tested on: SK-BR-3 cells (HER2 overexpressing cell line); experiment: SK-BR-3 cell proliferation inhibitory activity (CellTiter-Glo, 120 hours); type: cell-based; settings: Homo sapiens
Outline: as §1

[3] = tested on: Ba/F3 cells expressing HER2 L756S; experiment: Transduced Ba/F3 cell proliferation inhibitory activity, HER2 L756S; type: cell-based; settings: Mus musculus, BaF3; Ba/F3 HER2 L755S, 72 hours
Description: (§2) For Ba/F3 cells, RPMI-1640 supplemented with 10% FBS and 5 ng/ml IL-3 (R&D Systems) was used. Transduced Ba/F3 cells were cultured by adding 1 μg/ml puromycin (Invitrogen) to the same medium.
(§3) 3000 to 5000 cells were aliquoted into each well of a white clear bottom 96 well plate (Corning) 24 hours before treatment with the compounds of Examples. The compounds of Examples were diluted in dimethyl sulfoxide (three-fold dilution, a total of 12 concentrations) and injected each in an amount of 1 μl to a final concentration of 0.2 nM to 5 μM. For the measurement of living cells, the cells were stored at room temperature for 10 minutes using CellTiter-Glo luminescent cell-viability reagent (Promega) in 72 hours after treatment with the compounds of Examples, and the luminescence intensity thereof was measured using a reader (SynergyNeo, Biotek). Each test was repeated three times. The result values were calculated as a cell growth rate (%) compared to those of the control group. A graph was created using the GraphPad Prism version 8.3.0 program, and GI50 values were calculated.

[4] = tested on: Ba/F3 cells expressing HER2 L869R; experiment: Transduced Ba/F3 cell proliferation inhibitory activity, HER2 L869R; type: cell-based; settings: Mus musculus, BaF3, 72 hours
Description: as §2, §3

[5] = tested on: HaCaT cells (EGFR expressing cell line); experiment: HaCaT cell proliferation inhibitory activity (CellTiter-Glo, 72 hours); type: cell-based; settings: Homo sapiens
Outline: as §1

[6] = tested on: N-87 cells (HER2 overexpressing cell line); experiment: N-87 cell proliferation inhibitory activity (CellTiter-Glo, 72 hours); type: cell-based
Description: To evaluate the cell proliferation inhibitory activity of the compound according to the present invention on HER2 and EGFR kinases, the following method was performed using HER2 overexpressing cell lines (SK-BR-3, BT-474, and N-87) and EGFR expressing cell line (HaCaT).
McCOY'S 5A supplemented with 10% FBS was used for SK-BR-3 cells, RPMI-1640 medium supplemented with 20% FBS was used for BT-474 cancer cells, and RPMI-1640 medium supplemented with 10% FBS was used for N-87 cancer cells. DMEM supplemented with 10% FBS was used for HaCaT cells.
For SK-BR-3 cells, 5000 cells were aliquoted into each well of a white clear bottom 96 well plate (Corning) 48 hours before treatment with the compounds of Examples. For BT-474 cells, 5000 cells were aliquoted into each well of a white clear bottom 96 well plate (Corning) 48 hours before treatment with the compounds of Examples. For N-87 cells, 5000 cells were aliquoted into each well of a white clear bottom 96 well plate (Corning) 24 hours before treatment with the compounds of Examples. For HaCaT cells, 3000 cells were aliquoted into each well of a white clear bottom 96 well plate (Corning) 24 hours before treatment with the compounds of Examples. For SK-BR-3 cells and BT-474 cells, the compounds of Examples were diluted in dimethyl sulfoxide (three-fold dilution, a total of 11 concentrations) and injected each in an amount of 1 μl to a final concentration of 0.2 nM to 10 μM. For N-87 cells, the compounds of Examples were diluted in dimethyl sulfoxide (five-fold dilution, a total of 11 concentrations) and injected each in an amount of 0.5 μl to a final concentration of […] to 5 μM. For HaCaT cells, the compounds of Examples were diluted in dimethyl sulfoxide (three-fold dilution, a total of 11 concentrations) and injected each in an amount of 0.5 μl to a final concentration of 0.8 nM to 45 μM. For the measurement of living cells, the cells were stored at room temperature for 10 minutes using CellTiter-Glo cell viability reagent (Promega) after a certain period of time (SK-BR-3: 120 hours, BT-474: 120 hours, N-87: 72 hours, and HaCaT: 72 hours) post treatment with the compounds of Examples, and the luminescence intensity thereof was measured using a reader (SynergyNeo, Biotek). Each test was repeated three times.
The result values were calculated as a cell growth rate (%) compared to those of the control group. A graph was created using the GraphPad Prism version 5.0 program, and GI50 values were calculated.

[7] = tested on: Ba/F3 cells expressing HER2 T862A; experiment: Transduced Ba/F3 cell proliferation inhibitory activity, HER2 T862A; type: cell-based; settings: Mus musculus, BaF3, 72 hours
Description: as §2, §3

T1 sequence (P04626 23-1255): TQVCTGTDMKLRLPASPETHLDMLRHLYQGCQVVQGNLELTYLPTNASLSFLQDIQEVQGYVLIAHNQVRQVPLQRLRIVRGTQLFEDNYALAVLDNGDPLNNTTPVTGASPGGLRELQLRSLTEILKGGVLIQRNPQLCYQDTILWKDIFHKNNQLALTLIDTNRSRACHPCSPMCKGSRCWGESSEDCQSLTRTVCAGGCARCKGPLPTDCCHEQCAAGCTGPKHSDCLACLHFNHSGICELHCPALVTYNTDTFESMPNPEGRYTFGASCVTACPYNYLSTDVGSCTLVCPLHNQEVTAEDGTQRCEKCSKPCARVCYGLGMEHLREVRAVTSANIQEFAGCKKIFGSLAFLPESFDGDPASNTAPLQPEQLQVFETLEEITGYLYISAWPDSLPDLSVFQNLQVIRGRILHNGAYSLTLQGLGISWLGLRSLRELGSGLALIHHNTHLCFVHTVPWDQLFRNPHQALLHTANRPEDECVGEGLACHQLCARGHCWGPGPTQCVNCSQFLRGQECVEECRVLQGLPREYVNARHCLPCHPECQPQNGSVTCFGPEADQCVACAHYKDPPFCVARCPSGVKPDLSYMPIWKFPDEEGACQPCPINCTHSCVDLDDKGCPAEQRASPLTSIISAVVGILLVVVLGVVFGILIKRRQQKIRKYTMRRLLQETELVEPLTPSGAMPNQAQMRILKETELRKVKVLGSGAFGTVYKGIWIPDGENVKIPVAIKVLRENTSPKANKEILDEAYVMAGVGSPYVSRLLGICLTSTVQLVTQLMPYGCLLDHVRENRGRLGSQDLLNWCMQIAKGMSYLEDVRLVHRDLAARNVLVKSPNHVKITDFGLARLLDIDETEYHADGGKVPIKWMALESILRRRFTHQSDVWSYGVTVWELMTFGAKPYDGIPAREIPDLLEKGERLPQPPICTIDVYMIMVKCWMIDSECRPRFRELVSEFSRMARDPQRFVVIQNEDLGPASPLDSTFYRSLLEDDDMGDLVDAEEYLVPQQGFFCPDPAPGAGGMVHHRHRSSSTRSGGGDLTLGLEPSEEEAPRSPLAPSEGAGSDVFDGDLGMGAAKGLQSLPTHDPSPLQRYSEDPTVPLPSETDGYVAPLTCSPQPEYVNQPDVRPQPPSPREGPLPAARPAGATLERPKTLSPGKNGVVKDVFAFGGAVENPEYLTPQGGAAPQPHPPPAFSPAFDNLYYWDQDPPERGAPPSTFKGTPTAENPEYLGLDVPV

| SMILES | IC50 (HER2) [nM] | GI50 [1] [nM] | GI50 [2] [nM] | GI50 [3] [nM] | GI50 [4] [nM] | GI50 [5] [nM] | GI50 [6] [nM] | GI50 [7] [nM] |
| --- | --- | --- | --- | --- | --- | --- | --- | --- |
| C=CC(=O)N1CCC(Oc2cc3c(Nc4cc(-c5cc(C)co5)ccc4OC)ncnc3cc2OC)CC1 [Example 90, 1-(4-((7-methoxy-4-((2-methoxy-5-(4-methylfuran-2-yl)phenyl)amino)quinazolin-6-yl)oxy)piperidin-1-yl)prop-2-en-1-one] | ≤ 50 | – | – | – | – | – | – | – |
| C=CC(=O)N1CCC(Oc2cc3c(Nc4cc(-c5ccco5)ccc4OC)ncnc3cc2OC)C(F)C1 (stereo not shown) [Example 112, 1-(3-fluoro-4-((4-((5-(furan-2-yl)-2-methoxyphenyl)amino)-7-methoxy-quinazolin-6-yl)oxy)piperidin-1-yl)prop-2-en-1-one] | – | ≤ 150 | ≤ 150 | ≤ 50 | ≤ 50 | ≤ 150 | ≤ 150 | ≤ 50 |
| C=CC(=O)N1CCC(Oc2cc3c(Nc4cc(-c5cccc(C(F)(F)F)c5F)ccc4OC)ncnc3cc2OC)CC1 [Example 138, 1-(4-((4-((2′-fluoro-4-methoxy-3′-(trifluoromethyl)-[1,1′-biphenyl]-3-yl)amino)-7-methoxy-quinazolin-6-yl)oxy)piperidin-1-yl)prop-2-en-1-one] | – | ≤ 150 | ≤ 150 | – | – | 150 to 1000 | ≤ 150 | – |
| C=CC(=O)N1CCC(Oc2cc3c(Nc4cc(-c5cccc(C(F)(F)F)c5)ccc4OC)ncnc3cc2OC)CC1 [Example 139, 1-(4-((7-methoxy-4-((4-methoxy-3′-(trifluoromethyl)-[1,1′-biphenyl]-3-yl)amino)quinazolin-6-yl)oxy)piperidin-1-yl)prop-2-en-1-one] | – | ≤ 150 | ≤ 150 | – | – | 150 to 1000 | ≤ 150 | – |
| C=CC(=O)N1CCC(Oc2cc3c(Nc4cc(-c5ccco5)c(F)cc4OC)ncnc3cc2OC)C(F)C1 (stereo not shown) [Example 140, 1-(3-fluoro-4-((4-((4-fluoro-5-(furan-2-yl)-2-methoxyphenyl)amino)-7-methoxy-quinazolin-6-yl)oxy)piperidin-1-yl)prop-2-en-1-one] | – | ≤ 150 | ≤ 150 | – | – | ≤ 150 | ≤ 150 | – |
| C=CC(=O)N1CCC(Oc2cc3c(Nc4cc(-c5ccc(F)c(C(F)(F)F)c5)ccc4OC)ncnc3cc2OC)CC1 [Example 142, 1-(4-((4-((4′-fluoro-4-methoxy-3′-(trifluoromethyl)-[1,1′-biphenyl]-3-yl)amino)-7-methoxy-quinazolin-6-yl)oxy)piperidin-1-yl)prop-2-en-1-one] | – | ≤ 150 | ≤ 150 | – | – | 150 to 1000 | ≤ 150 | – |
| C=CC(=O)N1CCC(Oc2cc3c(Nc4cc(-c5cccc(N(C)C)c5)ccc4OC)ncnc3cc2OC)CC1 [Example 151, 1-(4-((4-((3′-(dimethylamino)-4-methoxy-[1,1′-biphenyl]-3-yl)amino)-7-methoxy-quinazolin-6-yl)oxy)piperidin-1-yl)prop-2-en-1-one] | – | ≤ 150 | ≤ 150 | – | – | 150 to 1000 | ≤ 150 | – |
| C=CC(=O)N1CCC(Oc2cc3c(Nc4cc(-c5ccc(F)cc5F)c(F)cc4OC)ncnc3cc2OC)CC1 [Example 157, 1-(4-((7-methoxy-4-((2′,4′,6-trifluoro-4-methoxy-[1,1′-biphenyl]-3-yl)amino)quinazolin-6-yl)oxy)piperidin-1-yl)prop-2-en-1-one] | ≤ 50 | ≤ 150 | – | – | – | ≤ 150 | ≤ 150 | – |
| C=CC(=O)N1CCC(Oc2cc3c(Nc4cc(-c5cc(N)c(F)cc5C)ccc4OC)ncnc3cc2OC)CC1 [Example 161, 1-(4-((4-((5′-amino-4′-fluoro-4-methoxy-2′-methyl-[1,1′-biphenyl]-3-yl)amino)-7-methoxy-quinazolin-6-yl)oxy)piperidin-1-yl)prop-2-en-1-one] | – | ≤ 150 | ≤ 150 | – | – | ≤ 150 | ≤ 150 | – |
| C=CC(=O)N1CCC(Oc2cc3c(Nc4cc(-c5cccc(N)c5F)ccc4OC)ncnc3cc2OC)CC1 [Example 163, 1-(4-((4-((3′-amino-2′-fluoro-4-methoxy-[1,1′-biphenyl]-3-yl)amino)-7-methoxy-quinazolin-6-yl)oxy)piperidin-1-yl)prop-2-en-1-one] | – | 150 to 1000 | ≤ 150 | – | – | 150 to 1000 | ≤ 150 | – |
| C=CC(=O)N1CCC(Oc2cc3c(Nc4cc(-c5ccc(F)cc5F)ccc4OC4CC4)ncnc3cc2OC)CC1 [Example 260, 1-(4-((4-((4-cyclopropoxy-2′,4′-difluoro-[1,1′-biphenyl]-3-yl)amino)-7-methoxyquinazolin-6-yl)oxy)piperidin-1-yl)prop-2-en-1-one] | – | ≤ 150 | ≤ 150 | – | – | ≤ 150 | ≤ 150 | – |
| C=CC(=O)N1CCC(Nc2cc3c(Nc4cc(-c5ccco5)ccc4OC)ncnc3cc2OC2CCOC2)CC1 (stereo not shown) [Example 270, 1-(4-((4-((5-(furan-2-yl)-2-methoxyphenyl)amino)-7-((tetrahydrofuran-3-yl)oxy)quinazolin-6-yl)amino)piperidin-1-yl)prop-2-en-1-one] | – | ≤ 150 | ≤ 150 | – | – | ≤ 150 | ≤ 150 | – |
| C=CC(=O)N1CCC(Nc2cc3c(Nc4cc(-c5ccco5)ccc4OC)ncnc3cc2OCCCN2CCOCC2)CC1 [Example 278, 1-(4-((4-((5-(furan-2-yl)-2-methoxyphenyl)amino)-7-(3-morpholinopropoxy)quinazolin-6-yl)amino)piperidin-1-yl)prop-2-en-1-one] | – | ≤ 150 | ≤ 150 | – | – | ≤ 150 | ≤ 150 | – |
| C=CC(=O)N1CCC(Nc2cc3c(Nc4cc(-c5ccc(F)cc5F)ccc4OC)ncnc3cc2OC2CCOC2)CC1 (stereo not shown) [Example 286, 1-(4-((4-((2′,4′-difluoro-4-methoxy-[1,1′-biphenyl]-3-yl)amino)-7-((tetrahydrofuran-3-yl)oxy)quinazolin-6-yl)amino)piperidin-1-yl)prop-2-en-1-one] | – | ≤ 150 | ≤ 150 | – | – | ≤ 150 | ≤ 150 | – |
| C=CC(=O)N1CCC(Nc2cc3c(Nc4cc(-c5ccco5)ccc4OC)ncnc3cc2OC)CC1 [Example 298, 1-(4-((4-((5-(furan-2-yl)-2-methoxyphenyl)amino)-7-methoxyquinazolin-6-yl)amino)piperidin-1-yl)prop-2-en-1-one] | – | ≤ 150 | ≤ 150 | – | – | ≤ 150 | ≤ 150 | – |
| C=CC(=O)N1CCC(Nc2cc3c(Nc4cc(-c5ccc(F)cc5F)ccc4OC)ncnc3cc2OC)CC1 [Example 299, 1-(4-((4-((2′,4′-difluoro-4-methoxy-[1,1′-biphenyl]-3-yl)amino)-7-methoxyquinazolin-6-yl)amino)piperidin-1-yl)prop-2-en-1-one] | – | ≤ 150 | ≤ 150 | – | – | ≤ 150 | ≤ 150 | – |
